In brackets after ≈: the same amount, converted by molar mass. Where only a bound is given, the exact number is not on record here.

The conditions of this series: buffer; pH 7.4; 200.0 µM.
What is called solubility (kinetic) is the concentration staying in solution when a stock, usually in DMSO, is diluted into the medium. `CCOC(=O)c1c(NC(=O)c2ccccc2C(=O)O)sc2c1CCCC2` gave a solubility (kinetic) of 41.5 µg/mL (≈ 111 µM).
As for `Cc1ccc(C2N(C)C(=O)c3ccccc3N2C)cc1` (stereo unspecified), the solubility (kinetic) was found to be 31.5 µg/mL (≈ 118 µM).
The molecule `Cc1nc2ccc(C(=O)Nc3ccccc3Cl)cc2s1` came in with a solubility (kinetic) of 14.2 µg/mL (≈ 46.9 µM).
In turn, `O=C(c1ccccc1)c1ccc(OCC(O)CN2CCCC2)cc1` (stereo unspecified) displayed a kinetic solubility of over 48.8 µg/mL.
Next, `CC(=O)c1ccc(N(CC(=O)Nc2cc(C)on2)S(=O)(=O)c2ccc(C)cc2)cc1`: 6.2 µg/mL (≈ 14.5 µM); `CCOc1ccc(CCNC(=O)/C=C/c2ccco2)cc1OCC`: over 49.4 µg/mL; `COCCCNC(=S)Nc1cccc(SC)c1`: over 40.6 µg/mL.
Next, `Cc1cc(C=NCCO)c(C)n1-c1cc(Cl)ccc1Cl`: 29.2 µg/mL (≈ 93.8 µM).
Regarding `O=C(CN1C(=O)NC2(CCCCCC2)C1=O)Nc1ccccc1[N+](=O)[O-]`, the solubility (kinetic) was found to be 7.3 µg/mL (≈ 20.3 µM).
In the case of `O=C(COc1ccccc1F)N1CCCc2ccccc21` it was over 42.8 µg/mL.
In the case of `CSc1ncc(Cl)c(C(=O)Nc2cccc(Cl)c2)n1` it was 1.1 µg/mL (≈ 3.5 µM); in that of `CCOc1cccc(/C=C/c2ccc3cccc(O)c3n2)c1O`, under 0.7 µg/mL.
Next, `O=C(Nc1cccc2ccccc12)OCc1cncs1`: over 42.6 µg/mL; `Cc1cc(NC(=O)CN2CCC(C)CC2)no1.O=C(O)C(=O)O`: over 49.1 µg/mL.
In turn, `O=C(NC(=S)Nc1ccccc1Br)C1CC1` had a kinetic solubility of 41.7 µg/mL (≈ 139 µM).
Next, `FC(F)(F)c1cc(Nc2ccccc2)nc(-c2ccccn2)n1`: 2.9 µg/mL (≈ 9.17 µM).
Molecule `CC(C)Cc1csc(NC(=O)c2ccc(Br)cc2)c1C(=O)O` showed a solubility (kinetic) of 53.6 µg/mL (≈ 140 µM).
In the case of `S=c1[nH]nc(-c2ccco2)n1-c1ccc(Cl)cc1` it was over 41.7 µg/mL; in that of `Cc1ccc(NC(=O)CNC(=O)C2CCCCC2)nc1`, over 41.3 µg/mL; in that of `CCOC(=O)CN=C/C(C(C)=O)=C(/C)O`, over 32 µg/mL.
In the case of `O=S(=O)(c1ccc(Cl)cc1)N1CCCC(C(F)(F)F)C1` (stereo unspecified) it was 1 µg/mL (≈ 3.05 µM); in that of `Cc1ccccc1-c1nc2sc(C)c(C)c2c(=O)o1`, under 0.6 µg/mL; in that of `CCOC(=O)NC(=S)Nc1c(C)n(C)n(-c2ccccc2)c1=O`, over 50.2 µg/mL.
In the case of `COC(=O)c1sc(-c2cccs2)cc1NC(=O)/C=C/C(=O)O` it was over 50.6 µg/mL; in that of `COc1cccc(CNC(=O)COC(=O)c2c(NC(C)=O)sc(C)c2C)c1`, 1.9 µg/mL (≈ 4.87 µM).
Molecule `COc1cccc(OC)c1CNC(=O)CCSCc1ccccc1F` returned a kinetic solubility of 37.3 µg/mL (≈ 103 µM).
In the case of `CC(C)CNC(=O)CN1c2cccc3cccc(c23)S1(=O)=O` it was over 47.8 µg/mL.
Next, `O=C(NCCc1ccc(Cl)cc1)C(=O)c1c[nH]c2ccccc12`: 2.1 µg/mL (≈ 6.43 µM); `CC1SCC(NC(=O)c2cccc(Cl)c2)CS1` (stereo unspecified): over 43.2 µg/mL.
As to `O=C(O)COCC(=O)NCc1csc2ccccc12`, the kinetic solubility was found to be 38.9 µg/mL (≈ 139 µM).
In the case of `CN(C)/C=C/C(=O)c1ccc(-n2cccc2)cc1` it was over 36 µg/mL; in that of `S=C(NCc1ccc(Cl)cc1)NCc1ccco1`, 39.5 µg/mL (≈ 141 µM).
In the case of `CCn1c(Cc2ccc(OC)cc2)nc2ccccc21` it was over 40 µg/mL; in that of `CC(C)(C)OC(=O)NC1CC2CCCC(C1)N2Cc1ccccc1` (stereo unspecified), over 49.6 µg/mL.
Next, `CCOc1ccc(N2C(=O)c3ccccc3NC2(C)CC)cc1` (stereo unspecified): over 46.6 µg/mL.
On to `N#C/C(=C\c1ccc[nH]1)C(=O)N1CCCCC1`, for which the kinetic solubility was over 34.4 µg/mL.
Next, `COc1ccc(OC)c(/C=C/c2ccc3cccc(O)c3n2)c1`: under 0.7 µg/mL; `N#CCNc1ccc([N+](=O)[O-])cc1C#N`: 30.3 µg/mL (≈ 150 µM); `Cc1ccccc1C(=O)N[C@H](C(=O)OCC(=O)NC1CC1)C(C)C`: over 49.9 µg/mL.
Molecule `Cc1ccc(-c2noc(-c3ccno3)n2)cc1` displayed a kinetic solubility of 2.4 µg/mL (≈ 10.6 µM).
As for `O=C(Cn1cc(C(=O)C2CC2)c2ccccc21)Nc1ccc(F)cc1`, the solubility (kinetic) is 0.7 µg/mL (≈ 2.08 µM).
Regarding `O=C(CCSCc1ccccc1F)NCc1cccs1`, the kinetic solubility was over 46.4 µg/mL.
In the case of `CCN1C(=O)N(c2ccc(C(C)=O)cc2)S(=O)(=O)c2ccccc21` it was 47.6 µg/mL (≈ 138 µM); in that of `CCOc1ccc(S(=O)(=O)NC(=O)c2ccccc2)cc1`, over 45.8 µg/mL; in that of `Nc1ncccc1OCc1ccc(Br)cc1`, 37.3 µg/mL (≈ 134 µM).
`CC1CCCC(NC(=O)COC(=O)c2ccc([N+](=O)[O-])o2)C1C` (stereo unspecified) displayed a solubility (kinetic) of 18.4 µg/mL (≈ 56.7 µM).
Next, `O=C(O)c1ccccc1NS(=O)(=O)c1cccc(NS(=O)(=O)c2cc(Br)ccc2Br)c1`: over 88.5 µg/mL; `CC1CCCC(NC(=O)COC(=O)c2ccccc2[N+](=O)[O-])C1C` (stereo unspecified): 48.6 µg/mL (≈ 145 µM); `O=C(Nc1ccc(F)cc1)c1cc2ccccc2o1`: 1.9 µg/mL (≈ 7.44 µM).
Next, `Cc1cscc1NC(=O)/C=C/C(=O)O`: 31.5 µg/mL (≈ 149 µM); `CC(=O)Nc1ccc(C(=O)NCC(=O)OCc2ccccc2F)cc1`: 7.5 µg/mL (≈ 21.8 µM).
`Cc1nc(-c2ccccc2)sc1C(=O)Nc1ccccc1F` yielded a kinetic solubility of 1.8 µg/mL (≈ 5.76 µM).
With `CC(=O)Nc1ccc(OCCOc2ccc(NC(C)=O)cc2)cc1`, the kinetic solubility stood at 2.2 µg/mL (≈ 6.7 µM).
In the case of `CSc1nc(N(C)C)c2ccccc2n1` it was 31.8 µg/mL (≈ 145 µM).
Turning to `CCOC(=O)c1sc(=S)n(-c2ccc(OC)cc2)c1C`, the solubility (kinetic) was determined as 18.1 µg/mL (≈ 58.5 µM).
As for `O=C(NC(=O)N1CCC2(CC1)OCCO2)c1ccc(Cl)cc1`, the kinetic solubility was over 48.7 µg/mL.
Regarding `OC(CN1CCN(Cc2ccccc2)CC1)c1ccc(Br)cc1` (stereo unspecified), the solubility (kinetic) was determined as 8.1 µg/mL (≈ 21.6 µM).
In the case of `NC(=O)Cn1nc(C(F)(F)F)c2c1CCCC2` it was over 37.1 µg/mL; in that of `O=C1C2CC(O)CN2C(=S)N1Cc1ccccc1` (stereo unspecified), over 39.3 µg/mL.
`Cc1c(NC(=O)Nc2ccc(F)cc2F)c(=O)n(-c2ccccc2)n1C` had a solubility (kinetic) of over 53.8 µg/mL.
Molecule `CCCCOc1ccc(/C(O)=C(\C#N)c2nc3ccccc3[nH]2)cc1` yielded a solubility (kinetic) of under 0.2 µg/mL.
In the case of `CCOC(=O)CNc1nc(Cl)nc(Nc2ccc(C)cc2)n1` it was 0.5 µg/mL (≈ 1.55 µM); in that of `Cn1c(=O)c2c([nH]c(=S)n2Cc2ccc(Cl)cc2)n(C)c1=O`, over 50.5 µg/mL.
`CC(NCc1ccccc1O)C12CC3CC(CC(C3)C1)C2.Cl` (stereo unspecified) had a kinetic solubility of 41.9 µg/mL.
In the case of `CCOC(=O)c1sc(=S)n(CC)c1NC(=O)c1ccccc1C` it was 3.4 µg/mL (≈ 9.7 µM); in that of `COc1ccc(-c2csc(C)n2)cc1Br`, 14.8 µg/mL (≈ 52.1 µM).
Next, `Cc1ccccc1NS(=O)(=O)c1csc(C(N)=O)c1`: over 44.5 µg/mL; `Cc1ccc(C)c(-n2c(C)nc3ccccc3c2=O)c1`: over 39.6 µg/mL.
For `Cc1ccc(SC(C)C(=O)N2CCN(c3ccccc3)CC2)cc1` (stereo unspecified), the kinetic solubility was determined as 34.9 µg/mL (≈ 102 µM).
In the case of `CC(C)OCCCNC(=O)NC(=O)c1ccc(Cl)cc1` it was 18.3 µg/mL (≈ 61.3 µM); in that of `CC1(c2cccc(Br)c2)NC(=O)NC1=O` (stereo unspecified), over 40.4 µg/mL; in that of `CNC(=S)N1CCC(NC(=O)c2ccco2)CC1`, over 40.1 µg/mL.
For the molecule `Cc1cc[n+](-c2ccccc2)c2ccccc12.[Cl-]`, the kinetic solubility stood at 17.3 µg/mL.
`CC(C(=O)Nc1cccc([N+](=O)[O-])c1)N1C(=O)NC2(CCCC2)C1=O` (stereo unspecified) showed a solubility (kinetic) of over 52 µg/mL.
Molecule `COc1cccc(C2CCCCN(C)C2=O)c1` (stereo unspecified) yielded a solubility (kinetic) of 32.7 µg/mL (≈ 140 µM).
In the case of `N/C(=N\OC(=O)c1ccccc1Cl)c1cccc([N+](=O)[O-])c1` it was 1.7 µg/mL (≈ 5.32 µM); in that of `CC1=CC(=C(C#N)C#N)c2ccccc2N1C`, 2.7 µg/mL (≈ 12.2 µM).
In the case of `Cc1cccc(C)c1N1C(=O)C(Cl)=C(N2CCCC2)C1=O` it was 31.2 µg/mL (≈ 102 µM).
In the case of `CN(C)CCn1c(=S)[nH]c2ccc(Cl)cc2c1=O`, the solubility (kinetic) was over 42.6 µg/mL.
Next, `CCC1C(C#N)=C(N)Oc2c1c(=O)oc1ccccc21` (stereo unspecified): 8.6 µg/mL (≈ 32.1 µM).
In the case of `COc1ccccc1-c1cc(C(=O)N2CCCC2)no1` it was over 40.8 µg/mL.
For `O=S(=O)(Nc1ccc2c(c1)OCCO2)c1ccc(F)c(F)c1`, the kinetic solubility is over 49.1 µg/mL.
Next, `COc1ccc2nc(N3C(=O)CNC3=S)sc2c1`: 19.5 µg/mL (≈ 69.8 µM); `Cc1c(C(=O)N2CCN(c3ccccn3)CC2)oc2c(F)cccc12`: 33.2 µg/mL (≈ 97.8 µM); `O=C(COc1ccccc1)NC1CCS(=O)(=O)C1` (stereo unspecified): over 40.4 µg/mL.
On to `OCC(O)CN(c1ccccc1)c1ccccc1` (stereo unspecified), for which the solubility (kinetic) was over 36.5 µg/mL.
In the case of `O=C(O)CSc1ccc(S(=O)(=O)N2CCCC2)cn1` it was over 45.4 µg/mL; in that of `Cc1ccc(C(=O)N2CCCC(C(=O)c3cc(F)ccc3F)C2)s1` (stereo unspecified), 52.3 µg/mL (≈ 150 µM).
For `NS(=O)(=O)c1ccc(F)c(C(=O)O)c1`, the solubility (kinetic) is over 32.9 µg/mL.
In turn, `Cc1ccc(N(C)S(=O)(=O)c2csc(C(N)=O)c2)cc1C` gave a solubility (kinetic) of 43.8 µg/mL (≈ 135 µM).
In the case of `N#Cc1ccc(OCC(=O)Nc2ccc(N3CCCC3)cc2)cc1` it was 5.9 µg/mL (≈ 18.4 µM).
In turn, `CC1CN(C(=O)Nc2ccc(Br)cc2Cl)CC(C)O1` (stereo unspecified) yielded a kinetic solubility of 30.3 µg/mL (≈ 87.2 µM).
In the case of `COc1ccccc1-n1c(-c2ccc(C)cc2)nc2ccccc2c1=O` it was 3.3 µg/mL (≈ 9.64 µM); in that of `CC(C)Nc1nc(-c2cccnc2)nc(-c2ccccc2)c1C#N`, under 0.1 µg/mL; in that of `c1csc(-c2cn3ccc4ccccc4c3n2)c1`, 10.7 µg/mL (≈ 42.7 µM).
In the case of `O=C(c1c[nH]c2ccccc12)C(F)(F)F` it was 20.2 µg/mL (≈ 94.8 µM); in that of `Cc1ccc(C(=O)/C=C/c2cc(C#N)n(C)c2C)cc1`, 1.2 µg/mL (≈ 4.54 µM); in that of `Nc1cc(S(=O)(=O)N2CCOCC2)ccc1N1CCOCC1`, over 49.1 µg/mL.
Take `CNc1nc(C23CC4CC(CC(C4)C2)C3)cs1`: the kinetic solubility came to 13 µg/mL (≈ 52.3 µM).
As to `CCOc1ccccc1C1NC(=O)c2ccccc2O1` (stereo unspecified), the solubility (kinetic) stood at 35.2 µg/mL (≈ 131 µM).
Next, `CC(C)(C)C(=O)CN1C(=O)NC2(CCc3ccccc32)C1=O` (stereo unspecified): over 45.1 µg/mL; `CCCCc1ccc(NC(=S)N2CCN(C)CC2)cc1`: over 43.7 µg/mL; `CCc1ccc(/C=C(\C#N)C(=O)NC2CCS(=O)(=O)C2)cc1` (stereo unspecified): 7.8 µg/mL (≈ 24.5 µM).
Next, `CC(C)c1ccc(OCC(O)CN2CCCC2)cc1.Cl` (stereo unspecified): 43.8 µg/mL; `COc1ccc(/C(=N/Nc2ncnc3ccccc23)C(=O)O)cc1`: over 48.3 µg/mL; `Cc1cccc(S(=O)(=O)Nc2ccncc2)c1`: 28.1 µg/mL (≈ 113 µM).
